# Results: patent US6716873B1, “Tocopherol ester compounds” (Yasoo Health Inc., priority 2003, dated 2004)
# Assays:
# [1] = test system: MCF-7 cells; test: Cell growth/viability assay with tetrazolium salt WST-8 (OD 450 nm); conditions: for inhibitory effect on cell viability (FIG. 2), in words: equimolar concentrations, incubation up to 10 days
# Experimental: (§1) Experimental media. […] Stock solutions were maintained at 4° C.
# Equimolar concentrations of the different compounds were added on day 2 and allowed for incubation for the indicated time period.
# [2] = test system: MDA-MB-231 cells; test: as above; conditions: MDA-MB-231 (ER-negative); after 6 days of incubation
# Experimental: Cultures of MDA-MB-231 cells were maintained at 37° C. in minimum essential medium containing 3.7 g of NaHCO3 per liter of water, supplemented with 10% (v/v) Fetal Bovine Serum and 1% Penicillin/Streptomycin (broad spectrum antibiotics). […] The media were equilibrated with a humidified atmosphere of 5% CO2. Stock cultures were seeded at a density of 200×10^3 cells/mL and allowed to multiply to confluence. The cells were grown at 37° C. in a humidified atmosphere containing 5% CO2 and passaged when confluent using 0.25% trypsin.
# The same amount of ethanol was added to the control samples. Stock solutions were maintained at 4° C.
# Cell viability assays. The first method employs a novel tetrazolium salt, WST-8 [2-methoxy-4-nitrophenyl)-3(4-nitrophenyl)-5-(2,4-disulphophenyl)-2-H-tetrazolium, monosodium salt] which produces a highly water-soluble formazan dye generated by dehydrogenases which are active in living cells in a culture medium. For initial growth assays, cell suspensions (5000 cells/100 μL/well) were dispensed onto 96-well microtiter plates and incubated at 37° C., 5% CO2 for 1-12 days. At distinct time intervals 10 μL of the WST-8 solution was added to each well and allowed to incubate for 2-4 hrs. A yellow formazan dye is developed only in living cells. […] The absorbance at 450 nm was measured using a microplate reader (EMS Reader with dispenser, Genesys Software) with a reference wavelength at 600 nm. […] For both methods, cell suspensions (5000 cells/100 μ□L culture media) were initially inoculated on a 96-well microplate and preincubated in an incubator for 48 hrs to allow attachment 10 μL of the stock solution of each compound was added so that the final concentration was equimolar for each compound corresponding to 10 µg/mL of VES.
# Comparison of the effect of the different compounds on absorbance at the appropriate wavelength was made by analysis of variance (ANOVA).
# Cells were seeded in triplicate in 96-well plates and incubated for 48 hrs to allow attachment. The different compounds were added at the indicated concentrations and allowed to incubate for an additional 4 days. The indicated incubation time previously was determined in a growth assay ats the time of maximal proliferation rate. Tetrazolium salt WST-8 (10 μL) was added to each well, the cells were allowed to incubate for 2 hours and optical density (OD) measurements of the yellow formazan dye were made at 450 nm.
# [3] = test system: MCF-7 cells; test: Cell viability assay, crystal violet staining (OD620 of cell lysates); conditions: for OD620 of the cell lysates (crystal violet) / statistical significance of decrease in cell growth / effect on cell growth compared to control (FIG. 1): MCF-7; for OD620 of the cell lysates (crystal violet): equimolar concentrations corresponding to 10 μg/mL of VES; for statistical significance of decrease in cell growth: Day 7, day of maximal proliferation rate; for effect on cell growth compared to control (FIG. 1): equimolar concentrations
# Experimental: as §1
# Cells were plated in triplicate in 96-well plates and allowed to attaach and reach confluence for 48 hours. On Day 2 test compounds were added at equimolar concentrations corresponding to 10 μg/mL of VES. Cell viability was determined at the specified times by staining with crystal violet and measuring the OD620 of the cell lysates.
# [4] = Stability in the culture media by TLC
# [5] = Chemical stability (solid state, organic solvent, aqueous base by 1H NMR); type: physicochemical; conditions: pH=9, room temperature, one day
# [6] = Day 0, equimolar concentrations, added on day 2
# [7] = Day 2, equimolar concentrations
# [8] = Day 4, equimolar concentrations
# [9] = Day 7, equimolar concentrations
# [10] = Day 9, equimolar concentrations
# [11] = Day 11, equimolar concentrations
Compound,"optical density (OD) of formazan dye at 450 nm (WST-8) [1, 6]","optical density (OD) of formazan dye at 450 nm (WST-8) [1, 7]","optical density (OD) of formazan dye at 450 nm (WST-8) [1, 8]","optical density (OD) of formazan dye at 450 nm (WST-8) [1, 9]","optical density (OD) of formazan dye at 450 nm (WST-8) [1, 10]","optical density (OD) of formazan dye at 450 nm (WST-8) [1, 11]","inhibitory effect on cell viability (FIG. 2), in words [1]",inhibition of cell growth [2] [%],"OD620 of the cell lysates (crystal violet) ([3]; Day 0, added on Day 2)",OD620 of the cell lysates (crystal violet) ([3]; Day 2),OD620 of the cell lysates (crystal violet) ([3]; Day 5),statistical significance of decrease in cell growth [3],OD620 of the cell lysates (crystal violet) ([3]; Day 7),OD620 of the cell lysates (crystal violet) ([3]; Day 9),effect on cell growth compared to control (FIG. 1) [3],"cytotoxicity, in words ([1]; concentration equivalent to IC50)",stability in the culture media (TLC) [4],cytotoxic effect on MCF-7 cells ([3]; 3.26 μg/mL (equimolar to 10 μg/mL of VES)) [%],decomposition of aqueous solution (1H NMR) [5]
"Cc1c(C)c2c(c(C)c1OC(=O)CCC(=O)O)CC[C@@](C)(CCC[C@H](C)CCC[C@H](C)CCCC(C)C)O2 [VES, RRR-α-tocopheryl succinate, reference compound]",0,0.8005,1.439,3.311,3.427,2.99,inhibited cell growth more effectively during the first 7 days of incubation,44,,,,,,,,,,,
"Cc1c(C)c2c(c(C)c1OC(=O)C(CC(=O)O)[Se]c1ccccc1)CC[C@@](C)(CCC[C@H](C)CCC[C@H](C)CCCC(C)C)O2 (stereo partly drawn) [PSSA-α-Toc, 2-phenylselanyl-succinic acid RRR-α-tocopherol ester]",0,0.7806,1.4215,2.998,2.812,2.105,most potent inhibitory effect throughout the culture period,65,0,0.325,0.9504,statistically significant decrease in cell growth,1.227,1.162,inhibited cell growth much more effectively,not cytotoxic,stable for more than one weak,,
"O=c1[nH]cc(F)c(=O)[nH]1 [5-FU, 5-fluorouracil, reference compound]",,,,,,,,31,,,,,,,,,,,
"O=[Se](=O)([O-])[O-].[Na+].[Na+] [Na Selenate, sodium selenate, reference compound]",,,,,,,,,0,0.07344,0.06117,statistically significant decrease in cell growth,0.082,0.05411,,,,100,
"O=C(O)CC([Se]c1ccccc1)C(=O)O (stereo not shown) [PSSA, phenylselanyl-succinic acid]",0,0.9149,2.019,3.618,3.541,3.451,no inhibitory effect over the first 7 days of incubation,31,0,0.3842,1.218,,1.693,1.495,no measurable effect compared to control,,stable for more than one weak,,less than 5%
